Reference: patent US9120798B2, “Amino-heteroaryl 7-hydroxy-spiropiperidine indolinyl antagonists of P2Y1 receptor” (priority 2012, dated 2015)

Tests used:
[1] = test system: human platelet rich plasma (PRP); assay: ADP induced platelet aggregation assay; format: cell-based; conditions: 5 min, read-out: PA IC50 (μM) @ 10 μM ADP
Protocol: ADP Induced Platelet Aggregation Assay
The ability of P2Y1 antagonists covered in the present invention to inhibit platelet aggregation induced by 10 μM ADP was tested using human platelet rich plasma (PRP) as described in Platelet Protocols: Research and Clinical Laboratory Procedures (White, M. M. et al., Academic Press (1999)). Human blood was collected in 30 μM (final concentration in blood) argatroban (GSK) as the anticoagulant at a ratio of 1 ml per 9 ml of blood. The PRP was isolated by centrifugation at 170 g for 12 minutes. The platelet poor plasma (PPP) was used as the blank for optical aggregometry. Compounds of the present invention in DMSO solution was preincubated with 250 μl PRP at 37° C. for 1 minute with stirring speed of 1000 rpm. Aggregation was initiated by addition of 2.5 μl of 1 mM ADP (Chrono-log, Havertown, Pa.) for a final ADP concentration of 10 uM. Platelet aggregation was monitored using Optical Aggregometer (Chrono-log, Havertown, Pa.) and the area under the curve (AUC) at 5 minute was measured. IC50 was calculated using vehicle control as 0% inhibition.
The platelet aggregation assay measures the in vitro antiplatelet activity of a compound in platelet rich plasma. The assay is sensitive to plasma protein binding, and is believed to be a better predictor of actual in vivo activity.

[2] = target: T1, cloned human P2Y1 receptors (Homo sapiens (Human), UniProt P47900); assay: Binding Assay A: membrane binding assay, [33P] 2MeS-ADP, WGA FlashPlates
Description: A membrane binding assay was used to identify inhibitors of [^33P] […] The cDNA clone for human P2Y1 was obtained from Incyte Pharmaceuticals and its sequence confirmed by established techniques (for a compendium of techniques used see Ausubel, F. et al. Current Protocols in Molecular Biology, John Wiley and Sons, NY, N.Y. (1995)). The essential coding sequences were subcloned into pCDNA 3.1 (Invitrogen) to produce a P2Y1 expression construct. This construct was then transfected into the human embryonic kidney cell line HEK-293 and stable transfectants selected in GENETICIN® (G418 sulfate; Life Technologies). […] Membranes were prepared by growing HEK293 #49 in 150 mm dishes in DMEM/10% FBS in the presence of 1 mg/ml G418 until cells were 80-90% confluent. Plates were then washed with cold (4° C.) D-PBS twice and cells harvested by scraping into 10 mL D-PBS. Cells were pelleted by centrifugation (1,000 g, 10 min, 4° C.) and the resulting pellet resuspended in Lysis Buffer (10 mM Tris (7.4), 5 mM MgCl2 containing Complete protease inhibitor cocktail (Roche Cat #1873580) as recommended by the manufacturer). The suspension was then homogenized in a Dounce homogenizer (10-15 strokes; B pestle, on ice) and the homogenate spun at 1,000 g, 4° C., 5 min to pellet large debris. The supernatant was centrifuged at 150,000 g, 4° C., for 1 hour and the resulting membrane pellet resuspended in 0.5-1 mL of Buffer B (15 mM HEPES (7.4), 145 mM NaCl, 0.1 mM MgCl2, 5 mM EDTA, 5 mM KCl) and stored at −70° C. until used.
Binding reactions were performed in WGA FlashPlates (PerkinElmer Life Sciences, Cat # SMP105A) in a volume of 200 μL containing ˜45 fmol of P2Y1 receptor (5 μg of total protein), 0.5 nM [^33P] […] Reactions were allowed to proceed to completion at room temperature for 1 hour and then the aqueous solution aspirated. Plates were sealed and the residual [^33P] bound to the plate determined by scintillation counting.

[3] = target: T1, cloned human P2Y1 receptors; assay: Binding Assay B: Scintillation Proximity Assay (SPA) for P2Y1 binding
Protocol: Binding Assay B—Scintillation Proximity Assay (SPA) for P2Y1 Binding
A SPA membrane binding assay was used to identify inhibitors of [^33P] […] Binding reactions were performed in 384-well OptiPlates (PerkinElmer Life Sciences, Cat #6007299) in a volume of 50 μL containing ˜15 fmol of P2Y1 receptor (1.7 μg of total protein), 0.3 nM [^33P] […] Reactions were allowed to proceed to completion at room temperature for 1 hour followed by centrifugation of the plate for 5 min. About 40 μL of the aqueous solution was aspirated. Plates were sealed and the [^33P]

[4] = read-out: P2Y1 Ki (nM), *Using binding assay A
[5] = SPA, 0.3 nM [33P] 2MeS-ADP, Cheng-Prusoff, read-out: P2Y1 Ki (nM) using binding assay B

T1 sequence (P47900 whole entry): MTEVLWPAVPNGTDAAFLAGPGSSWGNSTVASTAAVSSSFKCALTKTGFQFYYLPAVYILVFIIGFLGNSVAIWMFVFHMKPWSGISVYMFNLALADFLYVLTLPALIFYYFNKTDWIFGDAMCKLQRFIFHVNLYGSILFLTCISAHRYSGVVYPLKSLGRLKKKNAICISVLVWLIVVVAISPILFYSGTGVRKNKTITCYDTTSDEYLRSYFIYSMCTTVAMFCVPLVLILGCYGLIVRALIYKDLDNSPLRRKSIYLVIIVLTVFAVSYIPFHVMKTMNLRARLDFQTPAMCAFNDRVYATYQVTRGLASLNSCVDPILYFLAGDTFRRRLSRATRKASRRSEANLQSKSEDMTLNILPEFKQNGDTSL

Compound | IC50 [1] [µM] | Ki [2, 4] [nM] | Ki [2] [nM] | Ki [3] [nM] | Ki [3, 5] [nM]
CC(C)(C)CN1CCC2(CC1)CCN(c1ccccc1Nc1nc3ccc(C(C)(C)C)cc3[nH]1)c1ccccc12 [Comparator 1, reference compound] | > 40 | 259 | – | – | –
CC(C)(C)CN1CCC2(CC1)CN(c1ccccc1Nc1nnc(-c3ccc(C(F)(F)F)nc3)s1)c1c(O)ccc(Cl)c12 [Example 15, 4-Chloro-1′-neopentyl-1-(2-((5-(6-(trifluoromethyl)pyridin-3-yl)-1,3,4-thiadiazol-2-yl)amino)phenyl)spiro[indoline-3,4′-piperidin]-7-ol] | 1.6 | – | 5.7 | – | –
CCOC(=O)c1sc(Nc2ccccc2N2CC3(CCN(CC(C)(C)C)CC3)c3ccccc32)nc1C(F)(F)F [Comparator 2, reference compound] | > 40 | 6.3 | – | – | –
CC(C)(C)CN1CCC2(CC1)CN(c1ccccc1Nc1nc(C(F)(F)F)c(-c3ccccc3)s1)c1ccccc12 [Comparator 4, reference compound] | > 40 | 7.9 | – | – | –
CC(C)(C)CN1CCC2(CC1)CN(c1ccccc1Nc1nc(C(C)(C)C)c(C#N)s1)c1c(O)ccc(Cl)c12 [Example 39, 4-tert-Butyl-2-(2-(4-chloro-7-hydroxy-1′-neopentylspiro[indoline-3,4′-piperidine]-1-yl)phenylamino)thiazole-5-carbonitrile] | 4.9 | – | – | 9 | –
CC(C)(C)CN1CCC2(CC1)CN(c1ccccc1Nc1nnc(-c3cnc4ccccc4n3)s1)c1c(O)ccc(Cl)c12 [Example 16, 4-chloro-1′-neopentyl-1-(2-((5-(quinoxalin-2-yl)-1,3,4-thiadiazol-2-yl)amino)phenyl)spiro[indoline-3,4′-piperidin]-7-ol] | 17.7 | – | – | 66 | –
CC(C)(C)CN1CCC2(CC1)CN(c1ccccc1Nc1cc(-c3ccc(C(F)(F)F)cc3)on1)c1c(O)ccc(Cl)c12 [Example 37, 4-Chloro-1′-neopentyl-1-(2-(5-(4-(trifluoromethyl)phenyl)isoxazol-3-ylamino)phenyl)spiro[indoline-3,4′-piperidin]-7-ol] | 9.9 | – | – | 60 | –
CC(C)(C)CN1CCC2(CC1)CN(c1ccccc1Nc1nnc(-c3ccc(OC(F)(F)F)cc3)s1)c1c(O)cc(F)c(F)c12 [Example 34, 4,5-difluoro-1′-neopentyl-1-(2-((5-(4-(trifluoromethoxy)-phenyl)-1,3,4-thiadiazol-2-yl)amino)phenyl)spiro[indoline-3,4′-piperidin]-7-ol] | 9.9 | – | – | 37 | –
CC(C)(C)CN1CCC2(CC1)CN(c1ccccc1Nc1nnc(-c3ccc(OC(F)(F)F)cc3)s1)c1c(O)ccc(Cl)c12 [Example 26, 4-chloro-1′-neopentyl-1-(2-((5-(4-(trifluoromethoxy)phenyl)-1,3,4-thiadiazol-2-yl)amino)phenyl)spiro[indoline-3,4′-piperidin]-7-ol] | 0.9 | – | – | – | 13
CC(C)(C)CN1CCC2(CC1)CN(c1ccccc1Nc1nnc(-c3ccc(C(F)(F)F)cc3)s1)c1c(O)ccc(C#N)c12 [Example 45, 7-Hydroxy-1′-neopentyl-1-(2-(5-(4-(trifluoromethyl)phenyl)-1,3,4-thiadiazol-2-ylamino)phenyl)spiro[indoline-3,4′-piperidine]-4-carbonitrile] | 3.5 | – | – | 3 | –
CC(C)(C)CN1CCC2(CC1)CN(c1ccccc1Nc1nnc(-c3ccccn3)s1)c1c(O)ccc(C(F)(F)F)c12 [Example 6, 1′-Neopentyl-1-(2-(5-(pyridin-2-yl)-1,3,4-thiadiazol-2-ylamino)phenyl)-4-(trifluoromethyl)spiro[indoline-3,4′-piperidin]-7-ol] | 2.3 | – | – | 11 | –
COC(=O)c1nnc(Nc2ccccc2N2CC3(CCN(CC(C)(C)C)CC3)c3c(Cl)ccc(O)c32)s1 [Example 17, methyl 5-((2-(4-chloro-7-hydroxy-1′-neopentylspiro[indoline-3,4′-piperidin]-1-yl)phenyl)-amino)-1,3,4-thiadiazole-2-carboxylate] | 7.2 | – | – | 48 | –
CC(C)CN1CCc2nc(Nc3ccccc3N3CC4(CCN(CC(C)(C)C)CC4)c4c(Cl)ccc(O)c43)sc2C1 [Example 41, 4-Chloro-1-(2-(5-isobutyl-4,5,6,7-tetrahydrothiazolo[5,4-c]pyridin-2-ylamino)phenyl)-1′-neopentylspiro[indoline-3,4′-piperidin]-7-ol] | 20.3 | – | – | 21 | –
CC(C)(C)CN1CCC2(CC1)CN(c1ccccc1Nc1nnc(-c3ccc(OC(F)(F)F)cc3)s1)c1c(O)cc(F)c(Cl)c12 [Example 33, 4-chloro-5-fluoro-1′-neopentyl-1-(2-((5-(4-(trifluoromethoxy)-phenyl)-1,3,4-thiadiazol-2-yl)amino)phenyl)spiro[indoline-3,4′-piperidin]-7-ol] | 9.2 | – | – | 23 | –
CC(C)(C)CN1CCC2(CC1)CN(c1ccccc1Nc1nnc(-c3cccc(F)c3)s1)c1c(O)ccc(Cl)c12 [Example 29, 4-chloro-1-(2-((5-(3-fluoro-phenyl)-1,3,4-thiadiazol-2-yl)amino)phenyl)-1′-neopentylspiro[indoline-3,4′-piperidin]-7-ol] | 2.4 | – | – | 23 | –
CC(C)(C)CN1CCC2(CC1)CN(c1ccccc1Nc1nnc(-c3ccc(C(F)(F)F)cn3)s1)c1c(O)ccc(Cl)c12 [Example 8, 4-Chloro-1′-neopentyl-1-(2-(5-(5-(trifluoromethyl)pyridin-2-yl)-1,3,4-thiadiazol-2-ylamino)phenyl)spiro[indoline-3,4′-piperidin]-7-ol] | 1.5 | – | – | 7 | –
Cn1nc(C(C)(C)C)cc1-c1nnc(Nc2ccccc2N2CC3(CCN(CC(C)(C)C)CC3)c3c(Cl)ccc(O)c32)s1 [Example 18, 1-(2-((5-(3-(tert-butyl)-1-methyl-1H-pyrazol-5-yl)-1,3,4-thiadiazol-2-yl)amino)phenyl)-4-chloro-1′-neopentylspiro[indoline-3,4′-piperidin]-7-ol] | 1.8 | – | – | 33 | –
CC(C)(C)CN1CCC2(CC1)CN(c1ccccc1Nc1nnc(-c3ccc(C(F)(F)F)cc3)s1)c1c(O)ccc(C(F)(F)F)c12 [Example 3, 1′-Neopentyl-4-(trifluoromethyl)-1-(2-(5-(4-(trifluoromethyl)phenyl)-1,3,4-thiadiazol-2-ylamino)phenyl)spiro[indoline-3,4′-piperidin]-7-ol] | 0.5 | – | – | – | 16
CC(C)(C)CN1CCC2(CC1)CN(c1ccccc1Nc1nnc(-c3cccc(Cl)c3)s1)c1c(O)ccc(Cl)c12 [Example 20, 4-chloro-1-(2-((5-(3-chloro-phenyl)-1,3,4-thiadiazol-2-yl)amino)phenyl)-1′-neopentylspiro[indoline-3,4′-piperidin]-7-ol] | 2.6 | – | – | – | 16
COC(=O)c1ccc(O)c2c1C1(CCN(CC(C)(C)C)CC1)CN2c1ccccc1Nc1nnc(-c2ccc(C(C)(C)C)cc2)s1 [Example 44, Methyl 1-(2-(5-(4-tert-butylphenyl)-1,3,4-thiadiazol-2-ylamino)phenyl)-7-hydroxy-1′-neopentylspiro[indoline-3,4′-piperidine]-4-carboxylate] | 0.8 | – | – | – | 8
